Data: publication PMC4275348 (Molecular microbiology, 2014)
Substitutions are numbered along the chain they refer to.

Experiments:
LuxN = LuxN (Vibrio campbellii, UniProt A7MRY4); conditions: 1 μM AHL; V. harveyi TL25; versus DMSO
LuxN^G147D/Y194H = molecular target: T1, LuxN^G147D/Y194H (Vibrio campbellii, UniProt A7MRY4, G147D/Y194H); assay: Bioluminescence of V. harveyi XK006 carrying luxN G147D/Y194H; type: cell-based, Vibrio harveyi
T1 sequence (A7MRY4 1-849 G147D/Y194H): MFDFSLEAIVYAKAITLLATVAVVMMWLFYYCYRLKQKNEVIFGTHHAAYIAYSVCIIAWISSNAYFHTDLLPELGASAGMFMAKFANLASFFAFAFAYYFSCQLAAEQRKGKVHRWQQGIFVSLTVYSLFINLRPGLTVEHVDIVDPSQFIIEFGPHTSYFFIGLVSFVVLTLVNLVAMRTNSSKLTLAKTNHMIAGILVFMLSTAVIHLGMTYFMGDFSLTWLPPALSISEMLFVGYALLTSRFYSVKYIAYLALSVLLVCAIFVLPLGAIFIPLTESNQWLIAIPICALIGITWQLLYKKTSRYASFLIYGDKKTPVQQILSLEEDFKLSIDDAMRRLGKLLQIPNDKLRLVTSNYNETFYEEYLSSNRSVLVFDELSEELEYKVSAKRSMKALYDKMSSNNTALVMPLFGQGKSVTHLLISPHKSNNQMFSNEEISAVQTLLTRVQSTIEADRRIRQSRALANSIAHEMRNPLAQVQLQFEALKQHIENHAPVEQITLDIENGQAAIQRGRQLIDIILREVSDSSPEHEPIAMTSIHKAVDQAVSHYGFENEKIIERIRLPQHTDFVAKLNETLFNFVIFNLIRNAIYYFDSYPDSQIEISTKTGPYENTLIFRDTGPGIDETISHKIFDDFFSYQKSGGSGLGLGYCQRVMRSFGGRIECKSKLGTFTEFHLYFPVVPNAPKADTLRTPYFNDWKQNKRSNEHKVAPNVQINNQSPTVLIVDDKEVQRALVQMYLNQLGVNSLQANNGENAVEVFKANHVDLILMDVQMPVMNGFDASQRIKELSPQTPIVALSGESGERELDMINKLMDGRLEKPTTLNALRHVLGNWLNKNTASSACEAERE

luxN^S184I/S230P = molecular target: T2, luxN^S184I/S230P (Vibrio campbellii, UniProt A7MRY4, S184I/S230P); assay: Bioluminescence of V. harveyi XK006 carrying luxN S184I/S230P; type: cell-based, Vibrio harveyi
T2 sequence (A7MRY4 1-849 S184I/S230P): T1 sequence (A7MRY4 1-849 G147D/Y194H) with D147G, S184I, H194Y, S230P

LuxN^H210Q = molecular target: T3, LuxN^H210Q (Vibrio campbellii, UniProt A7MRY4, H210Q); assay: Bioluminescence of V. harveyi XK006 carrying luxN H210Q; type: cell-based, Vibrio harveyi; conditions: 1 μM AHL
T3 sequence (A7MRY4 1-849 H210Q): T1 sequence (A7MRY4 1-849 G147D/Y194H) with D147G, H194Y, H210Q

C[C@@H](O)CC(=O)N[C@H]1CCOC1=O [3OH-C4 HSL, N-((R)-3-hydroxybutanoyl)-L-homoserine lactone]
increase in light production (LuxN): over 1000 fold | response (dose-dependent light production) (LuxN^G147D/Y194H): most potent agonist | induction of light production (LuxN^G147D/Y194H; 20 nM AI-1): 30 fold | response (dose-dependent light production) (luxN^S184I/S230P): most potent agonist | induction of light production (LuxN^H210Q): 50 fold
